{"source": "paper PMC5126668", "about": "(PeerJ, 2016)", "key": {"CYP2C9": {"target": "T1, CYP2C9 (Homo sapiens, UniProt P11712)", "T1 construct": "tissue iPhase Pharmaceutical Services (Beijing, China) Lot # 7MMC011; host or cells: pooled human liver microsomes", "T1 sequence (P11712 whole entry)": "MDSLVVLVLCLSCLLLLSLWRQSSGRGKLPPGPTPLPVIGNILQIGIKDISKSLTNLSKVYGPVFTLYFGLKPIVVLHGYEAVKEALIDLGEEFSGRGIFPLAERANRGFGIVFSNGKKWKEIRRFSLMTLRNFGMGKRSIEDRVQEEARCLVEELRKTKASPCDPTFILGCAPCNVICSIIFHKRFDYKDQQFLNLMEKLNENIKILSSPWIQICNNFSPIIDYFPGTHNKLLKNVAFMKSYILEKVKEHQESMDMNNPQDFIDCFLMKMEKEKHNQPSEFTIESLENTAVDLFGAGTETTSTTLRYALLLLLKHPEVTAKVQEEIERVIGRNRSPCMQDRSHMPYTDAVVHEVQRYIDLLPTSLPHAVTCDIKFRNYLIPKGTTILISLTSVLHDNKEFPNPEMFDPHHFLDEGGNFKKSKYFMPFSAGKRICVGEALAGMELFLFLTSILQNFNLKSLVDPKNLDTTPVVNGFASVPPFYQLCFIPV", "assay": "Inhibition of CYP activities by GA in HLMs (tolbutamide)", "type": "biochemical", "protocol": "The samples containing HLMs were prepared in an ice bath, and three replicates of each dose were tested.\nThe reaction system consisted of 0.5 g/L HLMs, 1 mM NADPH, 25 µM phenacetin (CYP1A2 substrate), 25 µM tolbutamide (CYP2C9 substrate), 25 µM mephenytoin (CYP2C19 substrate), 10 µM dextromethorphan (CYP2D6 substrate) and 10 µM midazolam (CYP3A4 substrate). After incubation at 37 °C for 30 min, 200 µL of methanol containing 100 µg/L propranolol hydrochloride was added to terminate the reaction. The samples were then treated, and the corresponding substrate metabolites of CYP isoforms were detected according to a previously described method ([Shen et al., 2013])."}, "BAK metabolism in HLMs": {"tested_on": "BAK metabolism in HLMs", "assay": "Metabolic elimination of BAK in HLMs and its inhibition by GA (HPLC)", "type": "in vitro ADME, human", "conditions": "for Remaining percentage of GA (%) / Inhibition of BAK by GA (%): 30 min, mean; for Inhibition of BAK by GA, single samples / remaining of GA (%), single samples: t=30 min", "protocol": "The HLM mixtures were prepared on ice. […] At the end of the incubation (0 or 30 min), 200 µL of methanol-acetonitrile (1:1, V:V) solution containing tanshinone II A (internal standard) was added to terminate the reaction. The mixtures were then vortexed for 2 min followed by centrifugation at 14,500 rpm for 10 min. A 10 µL aliquot of the supernatant was then injected for HPLC analysis. […] RContr is the percentage of BAK remaining in the BAK group."}, "HK-2 cells": {"tested_on": "HK-2 cells", "assay": "HK-2 cell viability, MTT assay, with or without co-cultured HLMs", "type": "cell-based, human", "conditions": "GA 100 µM alone", "protocol": "HK-2 cells obtained from Peking Union Medical College were maintained in D/F12 medium containing 10% fetal bovine serum, 2 mM glutamine and 1 × 10^5 U/L penicillin and streptomycin at 37 °C in a 5% CO2 atmosphere. […] The samples containing HLMs were prepared in an ice bath, and three replicates were tested for each dose. In brief, HK-2 cells (100 µL) were seeded at 3 × 10^5cells/mL in 96-well plates. After 12 h, 200 µL of the test compound was added. For the BAK and GA with HLMs group, GA was pre-incubated with NADPH in HLMs for 30 min at 37 °C and then mixed with BAK; for the other groups, all tested compounds except NADPH were mixed, and NADPH was then added to start the metabolic reaction. After 4 h of culture, 100 µL of 0.5 g/L MTT was added, and the cells were cultured for 4 h. Subsequently, 150 µL of 4% isopropanol was added to cells for 15 min at 37 °C, and the absorbance at 570 nm was then read by a microplate reader (Multiskan MK3, Thermo, USA). The relative cell viability (%) was calculated as follows: Mean Absorbance of Sample/Mean Absorbance of Vehicle Control × 100%."}}, "note": "Where “and” joins values, the source holds several entries; their conditions need not be identical. Equal entries are not always repeated.", "data": [{"molecule": "CC1(C)[C@@H](O)CC[C@]2(C)[C@H]3C(=O)C=C4[C@@H]5C[C@@](C)(C(=O)O)CC[C@]5(C)CC[C@@]4(C)[C@]3(C)CC[C@@H]12", "note": "[GA, Glycyrrhetinic acid]", "values": [{"measurement": "IC50", "setting": "CYP2C9; HLMs, 30 min pre-incubation with NADPH, tolbutamide 25 µM", "result": "26.5 ± 3.08", "unit": "µM"}, {"measurement": "activity at 30 min, 0.1 µM", "setting": "CYP2C9; human, human liver microsomes, probe tolbutamide 25 µM, CYP2C9-30min, GA 0.1000, vs control, read-out: Relative activity (%)", "result": 114, "unit": "%"}, {"measurement": "activity at 30 min, 1 µM", "setting": "CYP2C9; human, human liver microsomes, probe tolbutamide 25 µM, CYP2C9-30min, GA 1.0000, vs control, read-out: Relative activity (%)", "result": 81, "unit": "%"}, {"measurement": "activity at 30 min, 6.25 µM", "setting": "CYP2C9; human, human liver microsomes, probe tolbutamide 25 µM, CYP2C9-30min, GA 6.2500, vs control, read-out: Relative activity (%)", "result": 76.2, "unit": "%"}, {"measurement": "activity at 30 min, 31.25 µM", "setting": "CYP2C9; human, human liver microsomes, probe tolbutamide 25 µM, CYP2C9-30min, GA 31.2500, vs control, read-out: Relative activity (%)", "result": 56.1, "unit": "%"}, {"measurement": "activity at 30 min, 100 µM", "setting": "CYP2C9; human, human liver microsomes, probe tolbutamide 25 µM, CYP2C9-30min, GA 100.0000, vs control, read-out: Relative activity (%)", "result": 48.9, "unit": "%"}, {"measurement": "activity at 30 min, 156.25 µM", "setting": "CYP2C9; human, human liver microsomes, probe tolbutamide 25 µM, CYP2C9-30min, GA 156.2500, vs control, read-out: Relative activity (%)", "result": 46.2, "unit": "%"}, {"measurement": "activity at 30 min, 312.5 µM", "setting": "CYP2C9; human, human liver microsomes, probe tolbutamide 25 µM, CYP2C9-30min, GA 312.5000, vs control, read-out: Relative activity (%)", "result": 18.1, "unit": "%"}, {"measurement": "activity at 30 min, […]", "setting": "CYP2C9; human, human liver microsomes, probe tolbutamide 25 µM, read-out: Relative activity (%)", "result": 35.9, "unit": "%"}, {"measurement": "activity at 30 min, 1000 µM", "setting": "CYP2C9; human, human liver microsomes, probe tolbutamide (25 µM), CYP2C9-30min, GA 1000.0000, vs control, read-out: Relative activity (%)", "result": 14.9, "unit": "%"}, {"measurement": "Remaining percentage of GA (%)", "setting": "BAK metabolism in HLMs; GA 12.5 µM with BAK 10 µM, HLMs", "result": "99.37 ± 9.39% and 99.37%"}, {"measurement": "Inhibition of BAK by GA (%)", "setting": "BAK metabolism in HLMs; GA 12.5 µM, BAK 10 µM, HLMs", "result": "23% and 22.72 ± 4.55% and 22.72%"}, {"measurement": "Inhibition of BAK by GA, single samples", "setting": "BAK metabolism in HLMs; GA 12.5 µM, BAK 10 µM", "result": "17.95% and 23.22% and 27.00%"}, {"measurement": "remaining of GA (%), single samples", "setting": "BAK metabolism in HLMs; GA 12.5 µM, BAK 10 µM", "result": "94.84% and 93.11% and 110.17%"}, {"measurement": "Remaining percentage of GA (%)", "setting": "BAK metabolism in HLMs; GA 62.5 µM with BAK 10 µM, HLMs", "result": "100.7 ± 12.33% and 100.77%"}, {"measurement": "Inhibition of BAK by GA (%)", "setting": "BAK metabolism in HLMs; GA 62.5 µM, BAK 10 µM, HLMs", "result": "44% and 43.85 ± 22.41% and 43.85%"}, {"measurement": "remaining of GA (%), single samples", "setting": "BAK metabolism in HLMs; GA 62.5 µM, BAK 10 µM", "result": "112.61% and 101.67% and 88.01%"}, {"measurement": "remaining of GA (%), single samples", "setting": "BAK metabolism in HLMs; GA 93.75 µM, BAK 10 µM", "result": "94.57% and 101.22%"}, {"measurement": "Remaining percentage of GA (%)", "setting": "BAK metabolism in HLMs; GA 125.0 µM with BAK 10 µM, HLMs", "result": "107.8 ± 7.54% and 107.76%"}, {"measurement": "Inhibition of BAK by GA (%)", "setting": "BAK metabolism in HLMs; GA 125.0 µM, BAK 10 µM, HLMs", "result": "92% and 92.00 ± 4.64%"}, {"measurement": "Inhibition of BAK by GA, single samples", "setting": "BAK metabolism in HLMs; GA 125 µM, BAK 10 µM", "result": "97.25% and 88.45% and 90.28%"}, {"measurement": "remaining of GA (%), single samples", "setting": "BAK metabolism in HLMs; GA 125 µM, BAK 10 µM", "result": "101.56% and 105.56% and 116.14%"}, {"measurement": "GA concentrations at which significant inhibition of BAK metabolic clearance was observed", "setting": "BAK metabolism in HLMs; HLMs, BAK 10 µM", "result": "above 12.5 µM"}, {"measurement": "effect on HK-2 cell survival", "setting": "HK-2 cells", "result": "did not affect"}]}]}
